From patent US10238631B2, “Sesquiterpene derivatives and their use in inflammation or cancer treatment” (Academia Sinica, priority 2014, dated 2019) come the findings set out here.

The IC50 is the concentration at which inhibition is half-maximal.

One assay has as its system A2058 (BRAF mutation). The experiment in a line: MTT cell viability assay, A2058 melanoma. The format is cell-based, human. The method, boiled down: (§1)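 Cells (2×10^3 to 1×10^4/well) seeded overnight, then exposed to compounds for 24 h to 72 h. Growth read by MTT colorimetry at OD570. Viability expressed as % of vehicle (0.5% DMSO) control.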
On the technique in general: Formazan colour is commonly taken as a measure of viable cells.

Assay [1] deals with NES-SA uterus cancer cell line. The experiment in a line: MTT cell viability assay, NES-SA. The format is cell-based. The note with it: 24 h. The procedure: (§2) Normal or cancer cells (2×10^3 to 1×10^4 cells/well) were seeded in 96-well plate for overnight and treated with different compounds for 24 h to 72 h. Cells growth were determined by MTT-based colorimetric assays according to. Viability of the test cells treated with vehicle (0.5% DMSO) only was defined as 100% viable. Survival of cells after treatment with DETDs was calculated using the following formula: viable cell number (%)=OD570 (treated cell culture)/OD570 (vehicle control)×100.
(§3) Based on toxicity results of DET and DETDs on different breast cancer and melanoma cell lines, we selected DETD-6, -32, -35 and -39, under the consideration of structure activity relationship for evaluating their suppression effect against other cancer types of cell line with indicated tumor origin in Table 5. […] The cells were treated with compounds for 24 h and then subjected to MTT assays.

In assay [2] the test system is MCF-7 (ER+, Her2−) human breast cancer cells. The experiment in a line: MTT cell viability assay, MCF-7 cells. It is filed as cell-based. The method, boiled down: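 Cells were seeded at 2×10^3 to 1×10^4 per well overnight, then exposed to compounds for 24 h to 72 h. Viability was read by MTT at OD570 as a percentage of the 0.5% DMSO vehicle control.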
Another assay relates to B16-F10 (NRAS mutation). The experiment in a line: MTT cell viability assay, B16-F10 melanoma. It is filed as cell-based. The note with it: Mus musculus, B16-F10, 24 h. The method, boiled down:
as §1

The next assay deals with U937 lymphoma line. As to the kind of experiment: MTT cell viability assay, U937. The format is cell-based. As to conditions: Homo sapiens, U-937, 24 h. The protocol: as §2, §3
The test system of assay [3] is PC6 lung cancer cell line. The experiment in a line: MTT cell viability assay, PC6. It is filed as cell-based. As to conditions: 24 h. The protocol:
as §2, §3

Assay [4] concerns A375-R PLX4032-resistant melanoma tumor. As to the kind of experiment: A375-R melanoma xenograft model in NOD/SCID mice. It is filed as in vivo, mouse. The note with it: 20 mg/kg i.p. alone. The protocol:
A375 and A375-R melanoma cells (3×10^6) were injected subcutaneously to the flanks of the six weeks old NOD/SCID mice. One week after the inoculation, the mice were randomized into treated groups (n=8 per group) and the treatments were started. Body weight and tumor volume of the mice were recorded every three days using formula a×b^2×0.5, where a and b represented the larger and smaller tumor diameters.
To study whether or not DETD-35 could overcome acquired resistance to BRAF inhibitor, we generated A375 cell line resistant to PLX4032 (designated A375-R) as described above. We then conducted A375-R orthotopic xenograft study.

The test system of assay [5] is MeWo (No NRAS or BRAF mutation). As to the kind of experiment: MTT cell viability assay, MeWo melanoma. The format is cell-based, human. As to conditions: 24 h. In a few lines: as §1
Assay [6] deals with HCT-116 colon cancer cell line. As to the kind of experiment: MTT cell viability assay, HCT-116. The format is cell-based. As to conditions: Homo sapiens, 24 h. The procedure: as §2, §3
The test system of assay [7] is DMBA/TPA-induced skin papillomas accelerated by PLX4032. As to conditions: DMBA/TPA + PLX4032 20 mg/kg, with DET or DETD-35 10 mg/kg i.p. twice per week.
Procedure: Dorsal skin of six weeks old female FVB/N mice were shaved and treated with topical application of DMBA (25 μg in 100 μL acetone). One week after DMBA treatment, the same skin area were treated topically twice weekly with 12-O-tetradecanoylphorbol-13-acetate (TPA) (4 μg in 100 μL acetone). The area was regularly shaved and tumor formation was assessed twice weekly, and tumors were defined as raised lesions of a minimum diameter of 1 mm.
Assay [8] has as its system Melanocyte (Normal cells). As to the kind of experiment: MTT cell viability assay, normal melanocytes. It is filed as cell-based, human. As to conditions: 24 h; for IC50: Homo sapiens, Melanocyte. In a few lines:
as §1

The next assay deals with MDA-MB-231 cell motility. As to the kind of experiment: Time-lapse microscope analysis of cell motility. The format is cell-based, human. As to conditions: 12 h, control 186. The procedure:
A 12 well cell culture plate was coated with 25 μg/mL fibronectin for 1 h and then seeded with 5×10^4 MDA-MB-231 cells in DMEM containing 10% serum. Twelve hours after seeding, time-lapse microscopy experiments were performed on an Inverted Confocal Microscope (LSM 510 META) equipped with an environmental chamber with phase-contrast optics (images taken every 30 min). Using the object-tracking application of Metamorph software (Molecular Devices), an average of 12 subsequent cell centroid displacements/30 min between two consecutive images were evaluated as cell velocities of migration. In total, cell trajectories were recorded for 24 h. These assays were made in treatments with vehicle (DMSO, 0.05%), DET (2.5, 4 and 10 μM), and DETD-35 (1.25, 2.5, 4 μM) added at the beginning of the time-lapse imaging/video taping.

Another assay relates to PC3 (Prostate). The experiment in a line: MTT cell viability assay, PC3. The format is cell-based. As to conditions: 24 h. The procedure: as §2, §3
Assay [9] concerns RAW264.7 (normal macrophage). As to the kind of experiment: MTT cell viability assay, RAW264.7 macrophages. It is filed as cell-based, mouse. The note with it: for IC50: Mus musculus, RAW264.7, 24 h. In a few lines: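 RAW264.7 macrophages (2×10^5 cells/well) pretreated with compounds 1 h, then incubated 24 h with or without 100 ng/μL LPS. Viability by MTT colorimetric assay run in parallel with Griess nitrite measurement.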

Assay [10] deals with LPS-induced nitric oxide (NO) production in RAW 264.7 cells. The experiment in a line: Nitric oxide production in LPS-stimulated macrophages (Griess). The format is cell-based, mouse. As to conditions: for IC50: Mus musculus, LPS-stimulated RAW264.7, nitrite 24 h after LPS. In a few lines:
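RAW 264.7 macrophages (2×10^5 cells/well) were pretreated with compound for 1 h and then stimulated with 100 ng/μL LPS for 24 h. NO was measured as nitrite in the medium by the Griess reaction. Viability was checked in parallel by MTT.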
For orientation: Nitrite, measured by Griess reagent, commonly stands in for NO production.

The mark [11] stands for this setting: MCF7, 24 h, read-out: IC50 on cell viability, MCF-7 (ER+, Her2−).
The mark [12] stands for this setting: MCF7, Table 5, 24 h, read-out: IC50 viability MCF-7 (Breast).
The mark [13] stands for this setting: 24 h, read-out: IC50 on cell viability, B16-F10 (NRAS mutation).
[14] abbreviates: Table 5, 24 h, read-out: IC50 viability B16-F10 (mouse) (Skin).

Where two headings read alike, the source gives them in different places. Where only a bound is given, the exact number is not on record here.

`C=C(C)C(=O)O[C@H]1CC2=C[C@@H](C/C(C)=C/[C@H]3OC(=O)C(=C)[C@H]13)OC2=O` [DET, deoxyelephantopin, reference compound]: the IC50 with A2058 (BRAF mutation) (24 h) is over 10 µM; with A2058 (BRAF mutation) (Homo sapiens, A2058, 24 h) it was over 10 µM; in [1], 0.9 µM; in assay [2] (setting [11]), 5 µM; in assay [2] (setting [12]), 5 µM; in the assay with B16-F10 (NRAS mutation) (setting [13]), about 6 µM. Moreover, the IC50 in the assay on B16-F10 (NRAS mutation) (setting [14]) was 6 µM; in the assay on U937 lymphoma line, 0.48 µM; in assay [3], 0.4 µM; in [5] it was over 10 µM; in [5] (Homo sapiens, MeWo) it was over 10 µM; in assay [6], 0.28 µM. Further, the IC50 in assay [8] is over 10 µM; in the assay on PC3 (Prostate), 12.8 µM; in [9] it was over 10 µM; in [10], 2.9 µM. For the same molecule, the “reduction of tumor mass” value in [4] came to 32%. For the same molecule, in assay [7], the “papillomas size in average” value is listed as 26.3 mm^3. The total papillomas number in assay [7] came to 11.7. Also, the migration distance with MDA-MB-231 cell motility (2.5 μM) turned out to be 144 μm; in the assay on MDA-MB-231 cell motility (4 μM) it was 15 μm; in the assay with MDA-MB-231 cell motility (10 μM), 9 μm.

Take `C=C1C(=O)O[C@H]2CC3=C[C@@H](C/C(C)=C/[C@@H](OC(=O)Cc4cccc5ccccc45)[C@H]12)OC3=O` [DETD-35]: the IC50 in the assay on A2058 (BRAF mutation) (Homo sapiens, A2058, 24 h) was 3.1 µM; in assay [1], 0.34 µM; in assay [2] (setting [11]), 3.2 µM; in assay [2] (setting [12]), 3.9 µM; in the assay on B16-F10 (NRAS mutation) (setting [13]) it was 2.7 µM; in the assay with B16-F10 (NRAS mutation) (setting [14]) it was 2.7 µM. Moreover, the IC50 was 0.18 µM with U937 lymphoma line; 0.34 µM in assay [3]; 6 µM in assay [5] (Homo sapiens, MeWo); 0.14 µM in assay [6]; over 10 µM in assay [8]; 5.5 µM in the assay with PC3 (Prostate). Moreover, the IC50 was over 10 µM in [9] and 1.5 µM in [10]. Further, in assay [4], the “reduction of tumor mass” value amounted to 46.9%. The “papillomas size in average” value in [7] came to 8.9 mm^3. In addition, in assay [7], the total papillomas number is reported as 4.8. In addition, the “IC50 on cell viability, Melanocyte (Normal cells)” value in [8] is “no detected toxicity”. The results for the migration distance in the assay on MDA-MB-231 cell motility (1.25 μM), in the assay with MDA-MB-231 cell motility (2.5 μM) and in the assay with MDA-MB-231 cell motility (4 μM) were 70 μm, 23 μm and 3 μm, respectively. Moreover, the “IC50 on cell viability, RAW264.7 (normal macrophage)” value in [9] (24 h) was “no detected toxicity”. Also, the “fold decrease in IC50 of NO production vs DET” value in assay [10] is recorded as 2 fold.
